Structures can show the parent of a compound that is named as a salt. Where two headings read alike, the source gives them in different places.
Assays:
[1] = system: Pancreatic Ductal Adenocarcinoma #03 (Panc 03); test: Murine antitumor activity versus Pancreatic Ductal Adenocarcinoma #03; assay type: in vivo; conditions: versus Panc 03; for LTC (long term cures): mice with no palpable tumor after a minimum of 86 days/total number in treatment group; for % T/C (tumor growth inhibition): intravenous, T/C <42% considered significant
Text: (§1) Murine Antitumor Activaty Versus Pancreatic Ductal Adenocarcinoma #03.
(§2) This is tumor growth inhibition, where T is the medium tumor burden in the treatment group times 100 at evaluation and C is the medium tumor burden in the control group at evaluation.
(§3) This is the maximum tolerated total dose administered intravenously in mg/kg.
(§4) This means the long term cures, the number of mice in the treatment group with no palpable tumor evidents after a minimum of 86 days/total number in treatment group. […]

[2] = as above; assay type: in vivo; conditions: mouse, in vivo, iv; administered intravenously, total dose; mice, Panc 03 study; read-out: MTD (maximum tolerated total dose)
Text: as §1, §2, §3, §4

[3] = system: P388 mouse leukemia cells; test: In vitro cytotoxicity: clonogenic survival in soft agar; assay type: cell-based; conditions: read-out: in vitro cytox IC50
Procedure: In Vitro Cytotoxicity This is measured by quantifying clonogenic survival in soft agar following a 1 hour transient exposure of P388 mouse leukemia cells to drug.

calf thymus DNA = test: DNA intercalation: ethidium bromide displacement assay; assay type: binding; conditions: displacement of 50% of calf thymus DNA bound ethidium bromide; average of two determinations
Text: A known ethidium bromide displacement assay is used to determine intercalation potency.

HeLa cell topo II = HeLa cell topo II (Homo sapiens, UniProt P11388); test: Topoisomerase II inhibition: promotion of covalent complex formation between pBR322 DNA and topo II (SDS/K+ precipitation); assay type: biochemical; conditions: read-out: topo II inhib EC50
HeLa cell topo II, sequence (P11388 whole entry): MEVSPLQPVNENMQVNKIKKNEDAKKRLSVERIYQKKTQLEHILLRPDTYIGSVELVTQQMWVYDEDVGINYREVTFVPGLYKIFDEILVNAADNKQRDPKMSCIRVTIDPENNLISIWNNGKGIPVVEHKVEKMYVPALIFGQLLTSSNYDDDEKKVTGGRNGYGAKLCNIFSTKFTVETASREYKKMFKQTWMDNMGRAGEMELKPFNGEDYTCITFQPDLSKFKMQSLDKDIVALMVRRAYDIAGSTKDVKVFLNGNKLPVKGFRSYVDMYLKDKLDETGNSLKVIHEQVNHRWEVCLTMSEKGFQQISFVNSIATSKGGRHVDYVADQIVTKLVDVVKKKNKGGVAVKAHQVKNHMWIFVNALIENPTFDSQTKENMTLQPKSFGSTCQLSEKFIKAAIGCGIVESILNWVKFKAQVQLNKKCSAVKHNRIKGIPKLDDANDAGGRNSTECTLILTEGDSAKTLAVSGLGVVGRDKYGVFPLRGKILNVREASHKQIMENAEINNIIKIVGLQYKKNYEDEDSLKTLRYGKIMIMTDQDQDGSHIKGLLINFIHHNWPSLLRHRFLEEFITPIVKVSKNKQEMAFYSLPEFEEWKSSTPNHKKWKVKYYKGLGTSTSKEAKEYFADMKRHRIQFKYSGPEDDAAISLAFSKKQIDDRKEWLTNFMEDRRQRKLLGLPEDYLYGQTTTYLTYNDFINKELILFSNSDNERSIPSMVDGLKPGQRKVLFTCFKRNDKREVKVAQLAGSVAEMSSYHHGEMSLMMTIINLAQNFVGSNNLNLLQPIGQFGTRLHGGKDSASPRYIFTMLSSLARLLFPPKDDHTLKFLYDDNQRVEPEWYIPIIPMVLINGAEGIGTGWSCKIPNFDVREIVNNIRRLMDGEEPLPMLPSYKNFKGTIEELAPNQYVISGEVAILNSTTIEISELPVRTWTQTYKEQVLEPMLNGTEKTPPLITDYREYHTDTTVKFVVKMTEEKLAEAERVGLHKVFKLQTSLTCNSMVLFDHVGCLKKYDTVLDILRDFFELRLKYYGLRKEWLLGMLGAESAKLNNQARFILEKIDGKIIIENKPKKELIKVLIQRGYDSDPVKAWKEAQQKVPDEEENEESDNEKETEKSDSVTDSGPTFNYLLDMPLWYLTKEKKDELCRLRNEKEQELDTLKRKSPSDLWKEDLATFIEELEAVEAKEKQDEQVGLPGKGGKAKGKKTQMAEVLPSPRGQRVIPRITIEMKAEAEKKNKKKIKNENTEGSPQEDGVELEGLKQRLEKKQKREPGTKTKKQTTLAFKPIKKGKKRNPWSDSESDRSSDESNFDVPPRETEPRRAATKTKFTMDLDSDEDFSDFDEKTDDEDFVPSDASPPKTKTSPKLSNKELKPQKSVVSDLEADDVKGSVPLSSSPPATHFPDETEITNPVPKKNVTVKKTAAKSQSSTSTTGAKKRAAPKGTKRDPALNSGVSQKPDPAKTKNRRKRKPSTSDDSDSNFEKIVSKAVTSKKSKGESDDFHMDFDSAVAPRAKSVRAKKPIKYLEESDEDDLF

[4] = tested as an antitumor agent (literature); cited from earlier work
[5] = P388, 1 hour transient exposure, 50% reduction of clonogenic survival in soft agar
[6] = DNA precipitated equivalent to 50% of the maximum precipitated by m-AMSA
[7] = footnote j: first dose administered 4 days after tumor implantation
[8] = footnote k: bell-shaped dose response curve noted when determining the EC50, relative to 50% of m-AMSA maximum

Row | SMILES | LTC (long term cures) [1] | % T/C (tumor growth inhibition) [1] [%] | MTD [2] [mg/kg] | IC50 [3, 5] [nM] | EC50 (calf thymus DNA) [nM] | EC50 (HeLa cell topo II; [6]) [nM] | antitumor activity [4] | % T/C (tumor growth inhibition) [1, 7] [%] | EC50 (HeLa cell topo II; [8]) [nM] | IC50 ([3]; P388, 1 h) [nM]
1 | CCN(CC)CCn1nc2c3c(c(CNS(C)(=O)=O)ccc31)Sc1ccc(OC)cc1-2 [Ex 12] | 3/5 | 0 | 208 | 30000 | 1600 | > 210000 |  |  |  | 
2 | CCN(CC)CCn1nc2c3c(c(CNC(=O)OC)ccc31)Sc1ccccc1-2 [Ex 13, Methyl N-[[2-[(2-diethylamino)ethyl]-2H-[1]-benzothiopyrano(4,3,2-cd)indazol-5-yl]methyl) carbamate] | 3/5 | 0 | 78 | 500 | 2600 | > 240000 |  |  |  | 
3 | Cc1ccc2[nH]nc3c2c1Sc1ccccc1-3 [5-methyl-2H-[1]benzothiopyrano[4,3,2-cd]indazole] |  |  |  |  |  |  | inactive |  |  | 
4 | CCN(CC)CCn1nc2c3c(c(CNS(C)(=O)=O)ccc31)Sc1ccc(O)cc1-2 [Ex 15] | 0/5 |  | 31 | 4.4 | 2400 |  |  | 0 | 550 | 
5 | CCN(CC)CCn1nc2c3c(c(CN)ccc31)Sc1ccccc1-2 [Ex 8] | 0/5 |  | 72 | 5800 | 120 | > 250000 |  | 25 |  | 
6 | CCN(CC)CCn1nc2c3c(c(CNS(C)(=O)=O)ccc31)Sc1ccccc1-2 [Ex 11, N-[[2-[2-(Diethylamino)ethyl]-2H-[1]-benzothiopyrano[4,3,2-cd]indazol-5-yl]methyl]methanesulfonamide] | 0/5 | 0 | 72 | 500 | 1800 | > 230000 |  |  |  | 
7 | CCN(CC)CCn1nc2c3c(c(CNC=O)ccc31)Sc1ccccc1-2 [Ex 5] | 0/5 | 0 | 81 | 330 | 1500 | > 260000 |  |  |  | 
8 | COc1cc(NS(C)(=O)=O)ccc1Nc1c2ccccc2nc2ccccc12 [mAMSA, reference compound] | 0/5 | 0 | 48 |  | 11000 |  |  |  |  | 151
9 | CCN(CC)CCn1nc2c3c(c(CNC(=O)OC)ccc31)Sc1ccc(OC)cc1-2 [Ex 14] | 4/4 |  | 170 | 45000 | 790 | > 220000 |  | 0 |  | 
10 | CCN(CC)CCn1nc2c3c(c(CNC)ccc31)Sc1ccccc1-2 [Ex 10, N-methyl-2-[(2-(Diethylamino)ethyl]-2H-[1]-benzothiopyrano[4,3,2-cd]indazole-5-methanaminedihydrochloride hydrate] | 1/5 | 0 | 326 | 16000 | 180 | > 220000 |  |  |  | 
11 | CCN(CC)CCn1nc2c3c(c(CN)ccc31)Sc1ccc(OC)cc1-2 [Ex 9] | 3/4 |  | 240 | 13000 | 130 | > 260000 |  | 0 |  | 
12 | CCN(CC)CCNc1ccc(CN(C)S(C)(=O)=O)c2sc3ccccc3c(=O)c12 [WIN33377, reference compound] | 3/5 | 0 | 124 | 301 | 18000 |  |  |  | 3000 | 
13 | CCN(CC)CCn1nc2c3c(c(CNC(=O)OC)ccc31)Sc1ccc(O)cc1-2 [Ex 16] | 0/5 |  | 18 | 11 | 1500 |  |  | 13 | 330 | 
14 | CCN(CC)CCn1nc2c3c(c(CNC=O)ccc31)Sc1ccc(OC)cc1-2 [Ex 6] | 3/5 | 0 | 231 | 55000 | 1900 | > 240000 |  |  |  | 

From patent US5532263A, “Benzothiopyranoindazole antitumor agents” (priority 1995, dated 1996)
